Test: molar heat capacity at constant pressure
Settings: 101.33 kPa

CCC[n+]1ccn(C)c1.[Br-] [1-methyl-3-propylimidazolium bromide]
Settings | molar heat capacity at constant pressure [J/K/mol]
199.31 K, Crystal, Vacuum adiabatic calorimetry | 164.75
199.46 K, Glass, Small (less than 1 g) adiabatic calorimetry | 175.22
200.05 K, Glass, Small (less than 1 g) adiabatic calorimetry | 176.21
200.67 K, Crystal, Vacuum adiabatic calorimetry | 166
200.97 K, Metastable crystal, Small (less than 1 g) adiabatic calorimetry | 168.83
201.03 K, Crystal, Vacuum adiabatic calorimetry | 166.26
201.36 K, Crystal, Vacuum adiabatic calorimetry | 166.53
202.03 K, Crystal, Vacuum adiabatic calorimetry | 167.06
202.22 K, Glass, Small (less than 1 g) adiabatic calorimetry | 178.79
202.47 K, Glass, Small (less than 1 g) adiabatic calorimetry | 180.24
203.09 K, Crystal, Vacuum adiabatic calorimetry | 167.78
203.39 K, Crystal, Vacuum adiabatic calorimetry | 168.1
203.43 K, Crystal, Vacuum adiabatic calorimetry | 167.91
203.43 K, Metastable crystal, Small (less than 1 g) adiabatic calorimetry | 170.24
204.75 K, Crystal, Vacuum adiabatic calorimetry | 169.11
204.84 K, Glass, Small (less than 1 g) adiabatic calorimetry | 187.91
204.96 K, Glass, Small (less than 1 g) adiabatic calorimetry | 184.36
205.16 K, Crystal, Vacuum adiabatic calorimetry | 169.18
205.49 K, Crystal, Vacuum adiabatic calorimetry | 169.21
205.88 K, Metastable crystal, Small (less than 1 g) adiabatic calorimetry | 171.68
206.12 K, Crystal, Vacuum adiabatic calorimetry | 170
207.12 K, Glass, Small (less than 1 g) adiabatic calorimetry | 199.89
207.47 K, Crystal, Vacuum adiabatic calorimetry | 170.79
207.56 K, Crystal, Vacuum adiabatic calorimetry | 170.75
207.61 K, Glass, Small (less than 1 g) adiabatic calorimetry | 196
208.34 K, Metastable crystal, Small (less than 1 g) adiabatic calorimetry | 173.15
208.84 K, Crystal, Vacuum adiabatic calorimetry | 171.68
209.31 K, Glass, Small (less than 1 g) adiabatic calorimetry | 214.39
209.63 K, Crystal, Vacuum adiabatic calorimetry | 172.23
210.02 K, Glass, Small (less than 1 g) adiabatic calorimetry | 225.97
210.2 K, Crystal, Vacuum adiabatic calorimetry | 172.56
210.79 K, Metastable crystal, Small (less than 1 g) adiabatic calorimetry | 174.52
211.34 K, Glass, Small (less than 1 g) adiabatic calorimetry | 239.57
211.57 K, Crystal, Vacuum adiabatic calorimetry | 173.4
211.7 K, Crystal, Vacuum adiabatic calorimetry | 173.55
212.2 K, Liquid, Small (less than 1 g) adiabatic calorimetry | 259.73
212.93 K, Crystal, Vacuum adiabatic calorimetry | 174.3
213.23 K, Metastable crystal, Small (less than 1 g) adiabatic calorimetry | 176.24
213.27 K, Glass, Small (less than 1 g) adiabatic calorimetry | 257.87
213.77 K, Crystal, Vacuum adiabatic calorimetry | 174.86
214.3 K, Crystal, Vacuum adiabatic calorimetry | 175.3
214.46 K, Liquid, Small (less than 1 g) adiabatic calorimetry | 259.1
215.25 K, Liquid, Small (less than 1 g) adiabatic calorimetry | 259.12
215.66 K, Crystal, Vacuum adiabatic calorimetry | 176.2
215.67 K, Metastable crystal, Small (less than 1 g) adiabatic calorimetry | 177.87
215.84 K, Crystal, Vacuum adiabatic calorimetry | 176.33
216.73 K, Liquid, Small (less than 1 g) adiabatic calorimetry | 260.04
217.03 K, Crystal, Vacuum adiabatic calorimetry | 177.11
217.09 K, Liquid, Small (less than 1 g) adiabatic calorimetry | 259.63
217.24 K, Liquid, Small (less than 1 g) adiabatic calorimetry | 260
217.9 K, Liquid, Small (less than 1 g) adiabatic calorimetry | 259.51
217.92 K, Crystal, Vacuum adiabatic calorimetry | 177.82
218.11 K, Metastable crystal, Small (less than 1 g) adiabatic calorimetry | 179.69
218.4 K, Crystal, Vacuum adiabatic calorimetry | 178.04
219.01 K, Liquid, Small (less than 1 g) adiabatic calorimetry | 260.43
219.18 K, Liquid, Small (less than 1 g) adiabatic calorimetry | 259.88
219.24 K, Liquid, Small (less than 1 g) adiabatic calorimetry | 260.35
219.77 K, Crystal, Vacuum adiabatic calorimetry | 179.06
219.98 K, Liquid, Small (less than 1 g) adiabatic calorimetry | 259.88
219.99 K, Crystal, Vacuum adiabatic calorimetry | 179.17
220.54 K, Metastable crystal, Small (less than 1 g) adiabatic calorimetry | 181.19
221.14 K, Crystal, Vacuum adiabatic calorimetry | 179.92
221.23 K, Liquid, Small (less than 1 g) adiabatic calorimetry | 260.68
221.29 K, Liquid, Small (less than 1 g) adiabatic calorimetry | 260.8
222.07 K, Crystal, Vacuum adiabatic calorimetry | 180.63
222.07 K, Liquid, Small (less than 1 g) adiabatic calorimetry | 260.23
222.51 K, Crystal, Vacuum adiabatic calorimetry | 180.9
222.97 K, Metastable crystal, Small (less than 1 g) adiabatic calorimetry | 182.89
223.23 K, Liquid, Small (less than 1 g) adiabatic calorimetry | 261
223.57 K, Liquid, Small (less than 1 g) adiabatic calorimetry | 261.15
223.88 K, Crystal, Vacuum adiabatic calorimetry | 181.95
224.15 K, Crystal, Vacuum adiabatic calorimetry | 182.18
224.16 K, Liquid, Small (less than 1 g) adiabatic calorimetry | 260.59
225.24 K, Liquid, Small (less than 1 g) adiabatic calorimetry | 261.29
225.25 K, Crystal, Vacuum adiabatic calorimetry | 182.95
225.39 K, Metastable crystal, Small (less than 1 g) adiabatic calorimetry | 184.41
225.86 K, Liquid, Small (less than 1 g) adiabatic calorimetry | 261.58
226.23 K, Crystal, Vacuum adiabatic calorimetry | 183.69
226.24 K, Liquid, Small (less than 1 g) adiabatic calorimetry | 260.96
226.63 K, Crystal, Vacuum adiabatic calorimetry | 183.97
227.24 K, Liquid, Small (less than 1 g) adiabatic calorimetry | 261.74
227.8 K, Metastable crystal, Small (less than 1 g) adiabatic calorimetry | 186.11
228 K, Crystal, Vacuum adiabatic calorimetry | 184.96
228.15 K, Liquid, Small (less than 1 g) adiabatic calorimetry | 262.01
228.31 K, Crystal, Vacuum adiabatic calorimetry | 185.39
228.33 K, Liquid, Small (less than 1 g) adiabatic calorimetry | 261.35
229.25 K, Liquid, Small (less than 1 g) adiabatic calorimetry | 262.21
229.38 K, Crystal, Vacuum adiabatic calorimetry | 186.04
230.21 K, Metastable crystal, Small (less than 1 g) adiabatic calorimetry | 187.89
230.39 K, Crystal, Vacuum adiabatic calorimetry | 186.96
230.42 K, Liquid, Small (less than 1 g) adiabatic calorimetry | 261.8
230.44 K, Liquid, Small (less than 1 g) adiabatic calorimetry | 262.44
230.75 K, Crystal, Vacuum adiabatic calorimetry | 187.19
231.26 K, Liquid, Small (less than 1 g) adiabatic calorimetry | 262.65
232.13 K, Crystal, Vacuum adiabatic calorimetry | 188.21
232.47 K, Crystal, Vacuum adiabatic calorimetry | 188.55
232.51 K, Liquid, Small (less than 1 g) adiabatic calorimetry | 262.24
232.62 K, Metastable crystal, Small (less than 1 g) adiabatic calorimetry | 189.5
232.74 K, Liquid, Small (less than 1 g) adiabatic calorimetry | 263.08
233.01 K, Crystal, Vacuum adiabatic calorimetry | 189.36
233.27 K, Liquid, Small (less than 1 g) adiabatic calorimetry | 263.01
233.5 K, Crystal, Vacuum adiabatic calorimetry | 189.25
234.55 K, Crystal, Vacuum adiabatic calorimetry | 190.14
234.61 K, Liquid, Small (less than 1 g) adiabatic calorimetry | 262.58
234.88 K, Crystal, Vacuum adiabatic calorimetry | 190.37
235.03 K, Liquid, Small (less than 1 g) adiabatic calorimetry | 263.49
235.28 K, Liquid, Small (less than 1 g) adiabatic calorimetry | 263.42
235.72 K, Metastable crystal, Small (less than 1 g) adiabatic calorimetry | 191.63
236.26 K, Crystal, Vacuum adiabatic calorimetry | 191.4
236.63 K, Crystal, Vacuum adiabatic calorimetry | 191.86
236.7 K, Liquid, Small (less than 1 g) adiabatic calorimetry | 263.12
237.29 K, Liquid, Small (less than 1 g) adiabatic calorimetry | 263.79
237.33 K, Liquid, Small (less than 1 g) adiabatic calorimetry | 263.86
237.63 K, Crystal, Vacuum adiabatic calorimetry | 192.56
238.14 K, Metastable crystal, Small (less than 1 g) adiabatic calorimetry | 193.62
238.71 K, Crystal, Vacuum adiabatic calorimetry | 193.49
238.79 K, Liquid, Small (less than 1 g) adiabatic calorimetry | 264.33
239.01 K, Crystal, Vacuum adiabatic calorimetry | 193.7
239.3 K, Liquid, Small (less than 1 g) adiabatic calorimetry | 264.2
239.63 K, Liquid, Small (less than 1 g) adiabatic calorimetry | 264.39
240.21 K, Liquid, Small (less than 1 g) adiabatic calorimetry | 263.92
240.38 K, Crystal, Vacuum adiabatic calorimetry | 194.84
240.53 K, Metastable crystal, Small (less than 1 g) adiabatic calorimetry | 195.14
240.78 K, Crystal, Vacuum adiabatic calorimetry | 195.37
240.89 K, Liquid, Small (less than 1 g) adiabatic calorimetry | 264.51
241.32 K, Liquid, Small (less than 1 g) adiabatic calorimetry | 264.76
241.76 K, Crystal, Vacuum adiabatic calorimetry | 196.04
241.93 K, Liquid, Small (less than 1 g) adiabatic calorimetry | 265.02
242.32 K, Liquid, Small (less than 1 g) adiabatic calorimetry | 264.51
242.39 K, Crystal, Vacuum adiabatic calorimetry | 197.23
242.86 K, Crystal, Vacuum adiabatic calorimetry | 197.07
242.91 K, Metastable crystal, Small (less than 1 g) adiabatic calorimetry | 197.2
243.14 K, Crystal, Vacuum adiabatic calorimetry | 197.19
243.34 K, Liquid, Small (less than 1 g) adiabatic calorimetry | 265.19
244.23 K, Liquid, Small (less than 1 g) adiabatic calorimetry | 265.58

Reference: the NIST ThermoML archive (doi:10.1016/j.jct.2006.05.008)
